In patent publication US6706663B2, “Herbicidal 3-heterocyclic substituted benzisothiazole and benzisoxazole compounds” (Wyeth, priority 2000, dated 2004):

Key:
[1] = tested on: ABUTH (Abutilon theophrasti); assay: Postemergence herbicidal evaluation; assay type: in vivo, Medic.; settings: postemergence
Method in brief: (§1)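 Seedlings grown for about two weeks were sprayed postemergence and then kept under standard greenhouse care. Injury was rated visually 4–5 weeks after treatment on a 0–9 scale against untreated controls, and ratings from repeat tests were averaged.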

[2] = tested on: AMBEL (Ambrosia artemisifolia); assay: Postemergence herbicidal evaluation; assay type: in vivo, L.; settings: postemergence
Method in brief: as §1

[3] = tested on: CASOB (Cassia obtusifolia); assay: Postemergence herbicidal evaluation; assay type: in vivo, L.; settings: postemergence
Method in brief: as §1

[4] = tested on: CHEAL (Chenopodium album); assay: Postemergence herbicidal evaluation; assay type: in vivo, L.; settings: postemergence
Method in brief: as §1

GALAP (Galium aparine) [5] = assay: Postemergence herbicidal evaluation; assay type: in vivo; settings: postemergence
Method in brief: as §1

[6] = tested on: ECHCG (Echinochloa crus-galli); assay: Postemergence herbicidal evaluation; assay type: in vivo, (L.) Beau; settings: postemergence
Method in brief: as §1

[7] = tested on: GLXMAW (Soybean, Williams); assay: Postemergence herbicidal evaluation; assay type: in vivo, Glycine max, (L.) Merr. cv Williams; settings: postemergence
Method in brief: as §1

ORYSAT (Rice, Tebonnet) [8] = assay: Postemergence herbicidal evaluation; assay type: in vivo, Oryza sativa, (L.) Tebonnet; settings: postemergence
Method in brief: as §1

ZEAMX (Corn, Field) = assay: Postemergence herbicidal evaluation; assay type: in vivo, Zea mays, L.; settings: postemergence
Method in brief: as §1

[9] = tested on: ABUTH (Abutilon theophrasti); assay: Preemergence herbicidal evaluation; assay type: in vivo, Medic.; settings: rated 4-5 weeks after treatment
[10] = tested on: AMBEL (Ambrosia artemisifolia); assay: Preemergence herbicidal evaluation; assay type: in vivo, L.; settings: rated 4-5 weeks after treatment
Method in brief: (§2)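 Seeds mixed with potting soil were planted atop about one inch of soil, then sprayed with test compound in aqueous acetone. Cups were kept in the greenhouse and rated visually 4–5 weeks after treatment on a 0–9 scale against untreated control.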

[11] = tested on: CASOB (Cassia obtusifolia); assay: Preemergence herbicidal evaluation; assay type: in vivo, L.; settings: rated 4-5 weeks after treatment
Method in brief: as §2

[12] = tested on: CHEAL (Chenopodium album); assay: Preemergence herbicidal evaluation; assay type: in vivo, L.; settings: rated 4-5 weeks after treatment
Method in brief: as §2

GALAP (Galium aparine) [13] = assay: Preemergence herbicidal evaluation; assay type: in vivo; settings: rated 4-5 weeks after treatment
Method in brief: as §2

[14] = tested on: IPOHE (Ipomoea hederacea); assay: Preemergence herbicidal evaluation; assay type: in vivo, (L.) Jacq.; settings: rated 4-5 weeks after treatment
ORYSAT (Rice, Tebonnet) [15] = assay: Preemergence herbicidal evaluation; assay type: in vivo, Oryza sativa, (L.) Tebonnet; settings: rated 4-5 weeks after treatment
[16] = tested on: TRZAWR (Wheat, Winter, cv Riband); assay: Preemergence herbicidal evaluation; assay type: in vivo, Triticum aestivum; settings: rated 4-5 weeks after treatment
Method in brief: as §2

[17] = tested on: SAGPY (Sagittaria pygmaea); assay: Flooded paddy, preemergence weed control; assay type: in vivo, L.; settings: rated 3-4 weeks after treatment, 0-9 rating scale
Method in brief: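 Flooded silt loam pots, seeds in upper 0.5 cm, water held 1.5–3 cm deep; greenhouse; visual 0-9 score vs control.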

ORYSAT (Rice, Tebonnet) [18] = assay: Flooded paddy, post-transplant rice tolerance; assay type: in vivo, Oryza sativa, (L.) Tebonnet; settings: flooded paddy, post-transplant rice, rated 3-4 weeks after treatment, 0-9 rating scale
Method in brief: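 Scores (0-9) reflect visual injury relative to untreated plants in flooded silt loam. Each pot held two transplanted ten-day-old seedlings under 1.5 to 3 cm standing water in the greenhouse.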

## Cn1c(C(F)(F)F)cc(=O)n(-c2cc3c(C4OCCCO4)nsc3cc2F)c1=O [Compound 62, 3-(3-m-dioxan-2-yl-6-fluoro-1,2-benzisothiazol-5-yl)-1-methyl-6-(trifluoromethyl)uracil]
[1]; rate 0.0320 kg/ha
  ABUTH herbicidal rating: 9.0
[1]; rate 0.0620 kg/ha
  ABUTH herbicidal rating: 9.0
[2]; rate 0.0320 kg/ha
  AMBEL herbicidal rating: 9.0
[2]; rate 0.0620 kg/ha
  AMBEL herbicidal rating: 9.0
[3]; rate 0.0320 kg/ha
  CASOB herbicidal rating: 9.0
[3]; rate 0.0620 kg/ha
  CASOB herbicidal rating: 9.0
[4]; rate 0.0320 kg/ha
  CHEAL herbicidal rating: 9.0
[4]; rate 0.0620 kg/ha
  CHEAL herbicidal rating: 9.0
GALAP (Galium aparine) [5]; rate 0.0320 kg/ha
  GALAP herbicidal rating: 9.0
GALAP (Galium aparine) [5]; rate 0.0620 kg/ha
  GALAP herbicidal rating: 9.0
[6]; rate 0.0320 kg/ha
  ECHCG herbicidal rating: 6.0
[6]; rate 0.0620 kg/ha
  ECHCG herbicidal rating: 9.0
[7]; rate 0.0320 kg/ha
  GLXMAW herbicidal rating: 9.0
[7]; rate 0.0620 kg/ha
  GLXMAW herbicidal rating: 9.0
ORYSAT (Rice, Tebonnet) [8]; rate 0.0320 kg/ha
  ORYSAT herbicidal rating: 6.0
ORYSAT (Rice, Tebonnet) [8]; rate 0.0620 kg/ha
  ORYSAT herbicidal rating: 6.0
ZEAMX (Corn, Field); rate 0.0320 kg/ha
  ZEAMX herbicidal rating: 6.0
ZEAMX (Corn, Field); rate 0.0620 kg/ha
  ZEAMX herbicidal rating: 7.0
[9]; Rate 0.0620 kg/ha
  Preemergence herbicidal rating ABUTH: 9.0
[9]; Rate 0.1250 kg/ha
  Preemergence herbicidal rating ABUTH: 9.0
[9]; Rate 0.2500 kg/ha
  Preemergence herbicidal rating ABUTH: 9.0
[10]; Rate 0.0620 kg/ha
  Preemergence herbicidal rating AMBEL: 9.0
[10]; Rate 0.1250 kg/ha
  Preemergence herbicidal rating AMBEL: 9.0
[10]; Rate 0.2500 kg/ha
  Preemergence herbicidal rating AMBEL: 9.0
[11]; Rate 0.0620 kg/ha
  Preemergence herbicidal rating CASOB: 9.0
[11]; Rate 0.1250 kg/ha
  Preemergence herbicidal rating CASOB: 9.0
[11]; Rate 0.2500 kg/ha
  Preemergence herbicidal rating CASOB: 9.0
[12]; Rate 0.0620 kg/ha
  Preemergence herbicidal rating CHEAL: 9.0
[12]; Rate 0.1250 kg/ha
  Preemergence herbicidal rating CHEAL: 9.0
[12]; Rate 0.2500 kg/ha
  Preemergence herbicidal rating CHEAL: 9.0
GALAP (Galium aparine) [13]; Rate 0.0620 kg/ha
  Preemergence herbicidal rating GALAP: 9.0
GALAP (Galium aparine) [13]; Rate 0.1250 kg/ha
  Preemergence herbicidal rating GALAP: 9.0
GALAP (Galium aparine) [13]; Rate 0.2500 kg/ha
  Preemergence herbicidal rating GALAP: 9.0
[14]; Rate 0.0620 kg/ha
  Preemergence herbicidal rating IPOHE: 9.0
[14]; Rate 0.1250 kg/ha
  Preemergence herbicidal rating IPOHE: 9.0
[14]; Rate 0.2500 kg/ha
  Preemergence herbicidal rating IPOHE: 9.0
ORYSAT (Rice, Tebonnet) [15]; Rate 0.0620 kg/ha
  Preemergence herbicidal rating ORYSAT: 9.0
ORYSAT (Rice, Tebonnet) [15]; Rate 0.1250 kg/ha
  Preemergence herbicidal rating ORYSAT: 9.0
ORYSAT (Rice, Tebonnet) [15]; Rate 0.2500 kg/ha
  Preemergence herbicidal rating ORYSAT: 9.0
[16]; Rate 0.0620 kg/ha
  Preemergence herbicidal rating TRZAWR: 9.0
[16]; Rate 0.1250 kg/ha
  Preemergence herbicidal rating TRZAWR: 9.0
[16]; Rate 0.2500 kg/ha
  Preemergence herbicidal rating TRZAWR: 9.0
[17]; rate 0.0080 kg/ha
  herbicidal rating, SAGPY: 9.0
[17]; rate 0.0320 kg/ha
  herbicidal rating, SAGPY: 6.0
[17]; rate 0.1250 kg/ha
  herbicidal rating, SAGPY: 9.0
ORYSAT (Rice, Tebonnet) [18]; rate 0.0080 kg/ha
  herbicidal rating, ORYSAT (rice tolerance): 9.0
ORYSAT (Rice, Tebonnet) [18]; rate 0.0320 kg/ha
  herbicidal rating, ORYSAT (rice tolerance): 9.0
ORYSAT (Rice, Tebonnet) [18]; rate 0.1250 kg/ha
  herbicidal rating, ORYSAT (rice tolerance): 9.0

## COCC1COC(c2nsc3ccc(-n4c(=O)cc(C(F)(F)F)n(C)c4=O)cc23)O1 (stereo not drawn) [Compound 64, 3-[3-[4-(methoxymethyl)-1,3-dioxolan-2-yl]-1,2-benzisothiazol-5-yl]-1-methyl-6-(trifluoromethyl)uracil]
[1]; rate 0.0320 kg/ha
  ABUTH herbicidal rating: 9.0
[1]; rate 0.0620 kg/ha
  ABUTH herbicidal rating: 9.0
[2]; rate 0.0320 kg/ha
  AMBEL herbicidal rating: 9.0
[2]; rate 0.0620 kg/ha
  AMBEL herbicidal rating: 9.0
[3]; rate 0.0320 kg/ha
  CASOB herbicidal rating: 4.0
[3]; rate 0.0620 kg/ha
  CASOB herbicidal rating: 5.0
[4]; rate 0.0320 kg/ha
  CHEAL herbicidal rating: 9.0
[4]; rate 0.0620 kg/ha
  CHEAL herbicidal rating: 9.0
GALAP (Galium aparine) [5]; rate 0.0320 kg/ha
  GALAP herbicidal rating: 9.0
GALAP (Galium aparine) [5]; rate 0.0620 kg/ha
  GALAP herbicidal rating: 9.0
[6]; rate 0.0320 kg/ha
  ECHCG herbicidal rating: 3.0
[6]; rate 0.0620 kg/ha
  ECHCG herbicidal rating: 5.0
[7]; rate 0.0320 kg/ha
  GLXMAW herbicidal rating: 7.0
[7]; rate 0.0620 kg/ha
  GLXMAW herbicidal rating: 8.5
ORYSAT (Rice, Tebonnet) [8]; rate 0.0320 kg/ha
  ORYSAT herbicidal rating: 5.0
ORYSAT (Rice, Tebonnet) [8]; rate 0.0620 kg/ha
  ORYSAT herbicidal rating: 5.5
ZEAMX (Corn, Field); rate 0.0320 kg/ha
  ZEAMX herbicidal rating: 5.5
ZEAMX (Corn, Field); rate 0.0620 kg/ha
  ZEAMX herbicidal rating: 5.5
[9]; Rate 0.0620 kg/ha
  Preemergence herbicidal rating ABUTH: 9.0
[9]; Rate 0.1250 kg/ha
  Preemergence herbicidal rating ABUTH: 9.0
[9]; Rate 0.2500 kg/ha
  Preemergence herbicidal rating ABUTH: 9.0
[10]; Rate 0.0620 kg/ha
  Preemergence herbicidal rating AMBEL: 9.0
[10]; Rate 0.1250 kg/ha
  Preemergence herbicidal rating AMBEL: 9.0
[10]; Rate 0.2500 kg/ha
  Preemergence herbicidal rating AMBEL: 9.0
[11]; Rate 0.0620 kg/ha
  Preemergence herbicidal rating CASOB: 7.5
[11]; Rate 0.1250 kg/ha
  Preemergence herbicidal rating CASOB: 9.0
[11]; Rate 0.2500 kg/ha
  Preemergence herbicidal rating CASOB: 9.0
[12]; Rate 0.0620 kg/ha
  Preemergence herbicidal rating CHEAL: 9.0
[12]; Rate 0.1250 kg/ha
  Preemergence herbicidal rating CHEAL: 9.0
[12]; Rate 0.2500 kg/ha
  Preemergence herbicidal rating CHEAL: 9.0
GALAP (Galium aparine) [13]; Rate 0.0620 kg/ha
  Preemergence herbicidal rating GALAP: 9.0
GALAP (Galium aparine) [13]; Rate 0.1250 kg/ha
  Preemergence herbicidal rating GALAP: 9.0
GALAP (Galium aparine) [13]; Rate 0.2500 kg/ha
  Preemergence herbicidal rating GALAP: 9.0
[14]; Rate 0.0620 kg/ha
  Preemergence herbicidal rating IPOHE: 7.0
[14]; Rate 0.1250 kg/ha
  Preemergence herbicidal rating IPOHE: 9.0
[14]; Rate 0.2500 kg/ha
  Preemergence herbicidal rating IPOHE: 9.0
ORYSAT (Rice, Tebonnet) [15]; Rate 0.0620 kg/ha
  Preemergence herbicidal rating ORYSAT: 8.5
ORYSAT (Rice, Tebonnet) [15]; Rate 0.1250 kg/ha
  Preemergence herbicidal rating ORYSAT: 9.0
ORYSAT (Rice, Tebonnet) [15]; Rate 0.2500 kg/ha
  Preemergence herbicidal rating ORYSAT: 9.0
[16]; Rate 0.0620 kg/ha
  Preemergence herbicidal rating TRZAWR: 9.0
[16]; Rate 0.1250 kg/ha
  Preemergence herbicidal rating TRZAWR: 9.0
[16]; Rate 0.2500 kg/ha
  Preemergence herbicidal rating TRZAWR: 9.0
[17]; rate 0.0080 kg/ha
  herbicidal rating, SAGPY: 0.0
[17]; rate 0.0320 kg/ha
  herbicidal rating, SAGPY: 3.0
[17]; rate 0.1250 kg/ha
  herbicidal rating, SAGPY: 9.0
ORYSAT (Rice, Tebonnet) [18]; rate 0.0080 kg/ha
  herbicidal rating, ORYSAT (rice tolerance): 5.5
ORYSAT (Rice, Tebonnet) [18]; rate 0.0320 kg/ha
  herbicidal rating, ORYSAT (rice tolerance): 8.0
ORYSAT (Rice, Tebonnet) [18]; rate 0.1250 kg/ha
  herbicidal rating, ORYSAT (rice tolerance): 9.0
